Experimental data as given in US20230381139A1, “METHODS OF TREATING AND/OR PREVENTING ALZHEIMER’S DISEASE WITH R-CARVEDILOL” (priority 2020, published 2023).

Tests used:
[1] = system: RyR2; conditions: cardiac cells; cited from earlier work
[2] = system: 5×FAD+/− hippocampal CA1 neurons; assay: In vivo two-photon Ca2+ imaging of CA1 neurons (neuronal hyperactivity) in 5×FAD+/− mice; set-up: species or system mouse
Method: Adult genetically engineered mice, 5×FAD^+/− (Oakley et al., 2006), RyR2-E4872Q^+/− (EQ^+/−) (Chen et al., 2014), 5×FAD^+/−/RyR2-E4872Q^+/− (5×FAD^+/−/EQ^+/−), and wildtype (WT) littermates of both sexes were used. R-carvedilol (R-CV) (at doses of 0.8, 1.6 or 3.2 mg/kg/day), racemic carvedilol (3.2 mg/kg/day), and vehicle control (DMSO) were delivered to 5×FAD^+/− mice in drinking water for one month, starting at different ages before (2-3 months old) or after (3-4 months old) the occurrence of AD pathologies (Oakley et al., 2006). To assess the effects of genetically and pharmacologically limiting RyR2 open time on the prevention and rescue of AD deficits in different stages (early, moderate, and late) of AD progression, animals at different ages (from 2-15 months) were used. As reported (Oakley et al., 2006), there was an age-dependence of AD progression in the 5×FAD^+/− mice. No sex-dependent differences in AD progression in these mice was observed. For 2-photon Ca^2+ imaging experiments, 5×FAD, RyR2 WT, and RyR2 mutant mice were cross-bred with the heterozygous Thy1-GCaMP6f transgenic mice (Chen et al., 2012; Chen et al., 2013) (GP5.17, JAX 025393) to express the GCaMP6f Ca^2+ sensing probe (driven by the Thy1 promotor) in hippocampal neurons in each of the genotypes used.
To determine whether limiting RyR2 open time can suppress AD-associated neuronal hyperactivity in vivo, double heterozygous 5×FAD^+/−/E4872Q^+/− mice were crossed with the heterozygous Thy-1 GCaMP6f^+/− transgenic mice (GP5.17, JAX 025393) to introduce the GCaMP6f^+/− transgene into each of the four genotypes (driven by the Thy1 promotor). In vivo two-photon imaging of GCaMP6f-expressing CA1 pyramidal neurons in each of the four genotypes to monitor spontaneous Ca^2+ transients was performed.
Neuronal hyperactivity has been reported in anesthetized AD model mice in vivo using two-photon Ca^2 + imaging (Busche et al., 2008; Busche et al., 2012; Lerdkrai et al., 2018; Busche et al., 2019). To facilitate comparison, the same approach described originally by Busche et al. and used by others in the field (Busche et al., 2012; Busche et al., 2008; Delekate et al., 2014; Eichhoff and Garaschuk, 2011; Kim et al., 2016; Takano et al., 2007; Zott et al., 2019) was employed. Craniotomy was performed according to the protocol reported previously (Busche, 2018; Busche et al., 2012; Busche et al., 2008) with some modifications. […] The body temperature was monitored and controlled at 36.5-37.5° C. during the entire surgery and imaging procedure. […] Besides the core body temperature, the respiratory and pulse rate were continuously monitored (MouseOx plus. STARR Life Science Corp.). […]

[3] = system: RyR2-mediated Ca2+ release; assay: Ex vivo two-photon Ca2+ imaging of caffeine-induced Ca2+ release in CA1 neurons of brain slices from treated 5×FAD+/− mice; set-up: species or system mouse; conditions: CA1 pyramidal neurons in brain slices of 4-5 months old 5×FAD+/− mice treated for 1 month; caffeine 40 mM; vs DMSO-treated
[4] = system: hippocampal CA3-CA1 pathway of 3×TG+/− mice; assay: Long-term potentiation recording in hippocampal slices from treated 3×TG+/− mice; type: in vivo, mouse; conditions: brain slices from 12-15 months old 3×TG+/− mice, 3.2 mg/kg/day for one month; vs DMSO
Method: Schaffer collateral fibers were stimulated at the CA3 subfield to record field excitatory postsynaptic potentials (fEPSPs) in the CA1 stratum radiatum of transverse hippocampal slices ([…]) from all genotypes and drug-treated mice at different ages. After recovering at room temperature for 1 h (or 2 h for brain slices from drug-treated mice), hippocampal slices were allowed to recover in the recording chamber for additional 10 min. To evaluate basal synaptic transmission, different stimulation strengths (0 μA to 200 μA in steps of 20 μA) were applied and plotted fEPSP slopes versus the current input to compare the slope of input/output (I/O) curves of fEPSP. In the experiments that followed, stimulus current was adjusted so that fEPSP stabilized at 40-50% of maximum. Baseline was recorded for at least […] until the differences among fEPSP slopes were within 10%. Long-term potentiation (LTP) was induced using a tetanic high-frequency stimulation (HFS; 4 trains of 100 pulses at 100 Hz, with 20-sec intervals). Synaptic responses were recorded for at least 60 min after tetanization and quantified as the slope of the evoked fEPSP as percentage of the baseline.

[5] = 3.2 mg/kg/day for one month, started at 2-3 or 3-4 months of age (both ages), vs vehicle pre-treated 5×FAD+/− mice

## COc1ccccc1OCCNC[C@@H](O)COc1cccc2[nH]c3ccccc3c12 [R-carvedilol, R-(+)-carvedilol]
[1]
  RyR2 open time: shortened
[2]; [5]
  fraction of hyperactive neurons: significantly lower
  mean frequency of spontaneous Ca2+ transients: significantly lower
  overall spontaneous neuronal activity (cumulative probability analysis): significantly lower
[2]; 3.2 mg/kg/day in drinking water for one month, started at 2-3 months (before AD pathology) or 3-4 months (after) of age, vs DMSO vehicle
  neuronal hyperactivity of 5×FAD+/− hippocampal CA1 neurons in vivo: prevented and rescued
[3]
  Caffeine-induced Ca2+ release: markedly reduced
[4]
  hippocampal LTP (potentiation of fEPSP slope): significantly enhanced
